Measurements reported in the supplement of paper PMC6723410.

tested on: GUMC-403; assay: viability at highest tested concentration (max response) relative to DMSO (% of DMSO control); higher = less cytotoxic; details: library / dose series: MIPE library, 11-point 1:3 dilution; top concentration 23 µM; 48 h
Method in brief: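 Plates of 1536 wells were seeded with 700 patient-derived GUMC-403 papilloma cells per well, grown by conditional reprogramming, in 5 μL F + Y medium and kept overnight at 37 °C. Compounds followed at 23 nL by pin tool over an 11-point 1:3 series, for 48 h. After a CellTiter-Glo luminescence read on a ViewLux, signals were set against vehicle wells as 100% and empty wells as 0%. The reported number is viability at the highest tested concentration relative to vehicle control.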

Row | SMILES | viability
1 | CN[C@@H]1CN(C[C@H]1OC)C2=NC3=C(C=C2)C(=O)C(=C\N3C4=NC=CS4)/C(O)=O | 94.4

same assay, conditions: library / dose series: MIPE library, 11-point 1:3 dilution; top concentration 46.1 µM; 48 h

Row | SMILES | viability
2 | O=C(O)c1cccnc1 | 103
3 | O=C(O)/C=C/c1ccc(O)c(O)c1 | 120
4 | O=C(Nc1ccncc1)C(=O)c1cn(Cc2ccc(Cl)cc2)c2ccccc12 | 112
5 | O=C1NC(=O)/C(=C/c2cccc(C(F)(F)F)c2)S1 | 106
6 | CN(C)CCN1C(=O)c2cccc3cc(N)cc(c23)C1=O | 62.2
7 | CCOC\1=C(/C(=O)NC2=CC=C(OC3=C(Cl)C(=NC=C3)N)C(=C2)F)C(=O)N(\C=C1)C4=CC=C(F)C=C4 | 77.8
8 | CC\1=C/C=C\C=[N]1[Pt](N)(Cl)Cl | 136
9 | CC(C)(Sc1cc(C(C)(C)C)c(O)c(C(C)(C)C)c1)Sc1cc(C(C)(C)C)c(O)c(C(C)(C)C)c1 | 111
10 | O=C1CCC(N2C(=O)c3ccccc3C2=O)C(=O)N1 (stereo not given) | 92
11 | COC(=O)C/1=C/O[C@@H](O)[C@H]\2[C@@H]1C\C=C2CO | 94.5
12 | CO[C@H]1CCC(O[C@H]2C[C@H]([C@]3(C)CC[C@]4(C[C@H](O)[C@@H](C)[C@@H]([C@@H](C)/C=C(\C)C(=O)[C@H](C)C[C@H](C)C(=O)[O-])O4)O3)O[C@]3(O[C@@H]([C@H]4O[C@@](O)(CO)[C@H](C)C[C@@H]4C)C[C@@H]3C)[C@@H]2C)O[C@@H]1C (stereo not given in full) | 104
13 | CCCCCCCCCCCC/1=C(O)/C(=O)/C=C(O)\C1=O | 89
14 | C[C@H]1[C@@H](C(=O)C[C@H]2O[C@@H]3O[C@]4(C)CC[C@H]5[C@H](C)CC[C@@H]([C@H]2C)[C@@]35OO4)O[C@@H]2O[C@]3(C)CC[C@H]4[C@H](C)CC[C@@H]1[C@@]24OO3 | 121
15 | C[S+](=O)([O-])c1cccc(CNc2nc(Nc3ccc4c(c3)CCC(=O)N4)ncc2C(F)(F)F)c1 | 66.8
16 | CCCCc1ccc2[nH]c(NC(=O)OC)nc2c1 | 112
17 | C[C@H]1C[C@H]2[C@@H]3CCC4=CC(=O)C=C[C@]4(C)[C@@]3(F)[C@@H](O)C[C@]2(C)[C@@]1(O)C(=O)CO | 142
18 | CC(O)(C[S+](=O)([O-])c1ccc(F)cc1)C(=O)Nc1ccc(C#N)c(C(F)(F)F)c1 (stereo not given) | 114
19 | NC(=O)c1nnn(Cc2cc(Cl)c(C(=O)c3ccc(Cl)cc3)c(Cl)c2)c1N | 90.7
20 | CC[C@]1(O)C[C@@H]2CN(CCc3c([nH]c4ccccc34)[C@@](C(=O)OC)(c3cc4c(cc3OC)N(C)[C@H]3[C@@](O)(C(N)=O)[C@H](O)[C@]5(CC)C=CCN6CC[C@]43[C@@H]65)C2)C1 | 114
21 | N=C(N)NC(=O)c1nc(Cl)c(N)nc1N | 125

Row | SMILES | viability
22 | Cl.Nc1ccn([C@@H]2O[C@H](CO)[C@@H](O)C2(F)F)c(=O)n1 | 107
23 | CC1(C)O[C@@H]2C[C@H]3[C@@H]4C[C@H](F)C5=CC(=O)C=C[C@]5(C)[C@@]4(F)[C@@H](O)C[C@]3(C)[C@]2(C(=O)CO)O1 | 109
24 | CCOC(=O)C(C)OC1=CC=CC2=C1\C=C/N(CC(=O)NC3=CC=C4OCCOC4=C3)C2=O (stereo not given) | 105
25 | O=C(O)c1ccc2c(c1)nc(Nc1cccc(Cl)c1)c1ccncc12 | 88.1
26 | O=C(O)C1CCCN(CCC=C(c2ccccc2)c2ccccc2)C1 (stereo not given) | 102
27 | C[C@@H]1C/C=C/C=C/C=C/C=C/[C@@H](O[C@@H]2O[C@H](C)[C@@H](O)[C@H](N)[C@@H]2O)C[C@@H]2O[C@](O)(C[C@@H](O)C[C@@H]3O[C@H]3/C=C/C(=O)O1)C[C@H](O)[C@H]2C(=O)O | 104
28 | C=CC1=C(C(=O)O)N2C(=O)[C@@H](NC(=O)/C(=N\O)c3csc(N)n3)[C@H]2SC1 | 130
29 | O=[S+]([O-])(/N=C/c1c(O)ccc2ccccc12)c1cccs1 | 87.9
30 | COC1CCC(C(=O)c2ccc3nc4c(cc3c2)CCCO4)CC1 (stereo not given) | 89.8
31 | O=C1NC(=O)/C(=C/c2ccc(-c3ccc(F)cc3O)o2)S1 | 83
32 | Cn1cc(/C=C2\C(=O)Nc3cccnc32)c2ccccc21 | 132
33 | CCOC(=O)N1CCN(/[N+]([O-])=N/Oc2ccc([N+](=O)[O-])cc2[N+](=O)[O-])CC1 | 118
34 | Cn1c(=O)n(-c2ccc(C(C)(C)C#N)cc2)c2c3cc(-c4cnc5ccccc5c4)ccc3ncc21 | 73.3
35 | C[C@]1(c2nc3c(C(N)=O)cccc3[nH]2)CCCN1 | 72.9
36 | CC\12CCC(=O)\C=C1CCC3C2CCC4(C)C3CCC4(O)C#C (stereo not given) | 103
37 | Cc1cc(Nc2nc(N[C@@H](C)c3ncc(F)cn3)ncc2Cl)n[nH]1 | 163
38 | CCc1ccc(CCOc2ccc(CC3SC(=O)NC3=O)cc2)nc1 (stereo not given) | 103
39 | Oc1ccc([C@@H]2Oc3ccc(O)cc3[C@@H]3CCC[C@@H]32)cc1 | 96.3
40 | COc1cc2c(cc1OC)CN(CCc1ccc(NC(=O)c3cc(OC)c(OC)cc3NC(=O)c3cnc4ccccc4c3)cc1)CC2 | 100
